Results published in PMC7870626, “Neurotoxicity and underlying cellular changes of 21 mitochondrial respiratory chain inhibitors” (Archives of Toxicology, 2021).
Read-outs that look alike come from different tables or passages of the source.

Key:
[1] = tested on: HepG2 cells; test: HepG2-based respirometry, total cell respiration (earlier study); details: NeuriTox neurite EC25 relative to cell respiration EC25; respirometric data from HepG2-based assays ref van der Stel et al. 2020
[2] = tested on: LUHMES cells; test: NeuriTox test: neurite area and viability, 24 h; format: cell-based, human; details: for EC25: Homo sapiens
Experimental: (§1) The NeuriTox test was performed as previously described (Delp et al. [2018b]; Krug et al. [2013a]; Stiegler et al. [2011]). Briefly, cells differentiated for 48 h were re-seeded into 96-well plates at a density of 100,000 cells/cm^2 in DM without cAMP and GDNF, and treated 1 h after seeding for 24 h. Subsequently, multiple endpoints were determined, e.g., neurite outgrowth (i.e., NeuriTox test), resazurin reduction, intracellular ATP content, gene expression levels from TempO-Seq analysis, and proteasomal activity. For the 120 h exposure scenario, LUHMES cells were differentiated for another 3 days after reseeding before they were treated on day 5 (d5) and d7 by a half medium exchange. Endpoints were determined on d10 of differentiation.
Image acquisition and analysis was performed as described previously (Krug et al. [2013a]; Schildknecht et al. [2013]; Stiegler et al. [2011]). In brief, cells were live-stained with 1 µg/ml Hoechst H-33342 and 1 µM calcein-AM and image acquisition was done by an automated high content imager (Cellomics, Waltham, MA, USA). Cell viability was determined as ratio of live cells (cell bodies being Calcein- and Hoechst-positive) relative to the total amount of cells (Hoechst-positive cell bodies). Neurite area was calculated by subtracting the somatic area (Hoechst-positive area plus surrounding) from the calcein-positive area.

[3] = tested on: LUHMES cells; test: Intracellular ATP content after NeuriTox exposure; format: cell-based; details: Homo sapiens; NeuriTox exposure scheme, 24 h; read-out: LUHMES 24 h EC25 ATP (converted)
Experimental: as §1
Plates from the NeuriTox test were further used after imaging for determination of alternative endpoints. Intracellular ATP was determined as described earlier (Delp et al. [2019]). In brief, CellTiterGlo 2.0 assay mix (Promega) containing luciferase was added after imaging, and luminescence was recorded. For the determination of resazurin reduction, a 10 × resazurin stock solution was added after imaging to the medium (final resazurin concentration 2 µg/ml) (Delp et al. [2018a]). After 60 min incubation, resazurin fluorescence was recorded (ex: 530 nm, em: 590 nm). Background-corrected data was used for further analysis.

[4] = tested on: U2OS cells; test: cells; format: cell-based; details: Homo sapiens; U2OS osteosarcoma cells, 24 h, luminescence of constitutively expressed luciferase; read-out: Cytotox EC25 U2OS (converted)
Experimental: A cell suspension of 100,000 cells/ml was prepared in assay medium, and white 384-well plates were filled with 30 µl/well cell suspension. Twenty-four hours after seeding, a dilution series of test compound, as well as positive and negative controls, were added to the cells. After 24 h exposure, the medium was removed, and 10 µl of Triton X-100 lysis buffer was added to each well. The luminescent signal was determined in a luminometer by injecting BDS Illuminate Mix and measuring the light emission. The Cytotox CALUX cell line constitutively expresses a high level of luciferase protein; the light emission is therefore proportional to the cell number of live cells, and its decrease can be used as measure of cytotoxicity. The light emission generated by cells exposed to vehicle control was set to 100%, and the luminescence of cells exposed to the positive control toxicant tributyltin acetate [100 µM] was set to 0%. The light output of the cells exposed to different concentrations of test compounds was scaled accordingly.

[5] = tested on: MRC complex (cI, cII or cIII); test: HepG2-based MRC complex assay in permeabilized cells (earlier study); format: cell-based; details: NeuriTox neurite EC25 relative to complex assay EC25 in permeabilized cells; respirometric data from HepG2-based assays ref van der Stel et al. 2020
[6] = tested on: LUHMES cells; format: cell-based, human; details: 24 h, vs 0.1% DMSO; for log2FoldChange AARS: gene AARS; for log2FoldChange AASDHPPT: gene AASDHPPT; for log2FoldChange AATF: gene AATF; for log2FoldChange ABCA1: gene ABCA1; for log2FoldChange ABCA6: gene ABCA6
Experimental: Cells were cultured and treated as described above for the NeuriTox assay. On d3, after 24 h treatment, culture medium was replaced by 33 µl/well 1 × Biospyder lysis buffer. After 15 min at room temperature, plates were sealed and frozen at -80 °C to complete lysis. Samples were analyzed at Bioclavis (Glasgow) using the TempO-Seq technique and the EU-ToxRisk v2.0 gene probe panel covering ca. 3000 genes (Yeakley et al. [2017]). All genes are listed in the supplementary excel file (containing also all gene regulations). Briefly, a 50 bp fragment of the target gene was amplified. The amplification step also introduced sample-specific barcodes. This allowed pooling of all samples and standard next-generation sequencing of the ensemble. Afterward, adapters were used to allocate the sequenced fragments to the correct samples. Finally, the alignment of all sequenced fragments (FASTQ files) for each sample to the collection of reference 50 bp oligonucleotides was performed for the quantification of reads per gene, also known as the read count values. In a pre-filtering step, samples with a total count < 0.2 million and genes with an average count < 1.5 were removed.
To correct for both read depth and RNA composition, the DESeq2′s median of ratios normalization was applied. The analysis of differentially expressed genes (DEG) of each treatment against the control group was done by the Wald test implemented in DESeq2/R (Love et al. [2014]), including an FDR correction for p-adjusted ≤ 0.05. […] A curve was fit through these concentration–response data to obtain EC10DEG. For comparability, all DEG data were normalized to a positive control. […] The EC10DEG was calculated using an established online open access BMC calculator (BMCeasy) (Krebs et al. [2020]).

[7] = tested on: SH-SY5Y cells; test: Mitochondrial membrane potential (rhodamine 123), KE2 assay; format: cell-based, human; details: for Ratios of EC25 KE4/KE2 MMP: NeuriTox neurite EC25 relative to SH-SY5Y MMP EC25
Experimental: Cells were plated at a cell density of 29,500 cells/cm^2 and handled as described above for the neurite SH-SY5Y degeneration. On d6 of differentiation, 50% of the medium was replaced by differentiation medium containing 2 µM Rhodamine 123 (ThermoFisher). After 45 min of preloading at 37 °C with 5% CO2 in darkness, the Rhodamine 123 solution was completely removed and cells were carefully washed once with 200 µl DMEM:F12. Subsequently, 50 µl differentiation medium per well were added followed by the addition of 50 µl/well of test compounds in medium. After 24 h of exposure to the test compounds, the nuclei were stained for 30 min with 20 µL of a solution containing 20 µM Hoechst 33342, and the images were then acquired with a 10 × objective lens using the ImageXpress® Micro (Molecular Devices) high content microplate imager. Nuclei were evaluated in the DAPI channel (excitation 377 ± 50 nm, emission 447 ± 60 nm), whereas Rhodamine 123 fluorescence was detected in the FITC channel (excitation 475 ± 34 nm, emission 536 ± 40 nm). Analysis of the Hoechst 33,342 and Rhodamine 123 fluorescence was performed using the MetaXpress® Software (Molecular Devices) with the Transfluor HT plug-in and the parameters nuclei (for Hoechst-33342) and integrated granule intensity (for Rhodamine 123). Mitochondrial membrane potential (MMP) was quantified as the total fluorescence intensity of Rhodamine 123 in relation to the number of Hoechst-stained nuclei.

[8] = tested on: proteasome; test: Proteasomal activity (KE3 assay) in LUHMES cells; format: cell-based, human; details: NeuriTox neurite EC25 relative to proteasomal activity EC25, LUHMES
Experimental: Activity of the proteasome was quantified as described in (Gutbier et al. [2018b]). Briefly, after exposure, culture medium was replaced by assay buffer containing a cell-permeable proteasomal substrate (MeOSuc-Gly-Leu-Phe-AMC, 25 µM (Bachem, Bubendorf, Switzerland) in HBSS). Its AMC-fluorescence (ex: 360 nm, em: 465 nm) increases with proteasomal activity and was monitored for 90 min. Background-corrected data were used for further analysis.

[9] = NeuriTox exposure scheme, 24 h, read-out: LUHMES 24 h EC25 NA (neurite area) (converted)
[10] = NeuriTox exposure scheme, 24 h, read-out: LUHMES 24 h EC25 V (viability) (converted)
[11] = NeuriTox test, neurite outgrowth impairment, LUHMES 24 h

| Structure (SMILES) | Ratios of EC25 KE4/KE1 total respiration [1] | EC25 [2, 9] [µM] | EC25 [2, 10] [µM] | EC25 [3] [µM] | EC25 [4] [µM] | Ratios of EC25 KE4/KE1 complex assay [5] | Ratios of EC25 KE4/KE2 MMP [7] | other results |
| --- | --- | --- | --- | --- | --- | --- | --- | --- |
| CO/N=C(/C(=O)OC)c1ccccc1CO/N=C(\C)c1cccc(C(F)(F)F)c1 [Trifloxistrobin] | ≥ 10 |  |  |  |  |  |  |  |
| Cc1occc1C(=O)Nc1ccccc1 [Fenfuram] |  | > 100 | > 100 | > 100 | > 100 |  |  |  |
| CCc1nn(C)c(C(=O)NCc2ccc(C(C)(C)C)cc2)c1Cl [Tebufenpyrad] | 126 | 20 | 20 | 12.6 | > 100 | 1000 | 5.6 | EC25 ([2]; NeuriTox test, neurite outgrowth impairment, LUHMES 24 h, read-out: EC25 KE4 (AO) Neurite toxicity (converted)): 20 µM; log2FoldChange AARS ([6]; 0.09 µM): -0.0653 log2; log2FoldChange AASDHPPT ([6]; 0.09 µM): 0.0475 log2; log2FoldChange AATF ([6]; 0.09 µM): 0.19 log2; log2FoldChange ABCA1 ([6]; 0.09 µM): -0.37 log2; log2FoldChange ABCA6 ([6]; 0.09 µM): 0.84 log2; EC25 ([7]; Homo sapiens, SH-SY5Y differentiated 6 days, treated 24 h, rhodamine-123, read-out: pEC25 MMP (concentration where MMP was reduced by 25%) (converted)): 3.16 µM |
| CC(C)(C)c1ccc(CCOc2ncnc3ccccc23)cc1 [Fenazaquin] | 40–60 | 10 | 15.8 | 10 | > 100 | ≥ 800 |  |  |
| CSC1=N[C@@](C)(c2ccccc2)C(=O)N1Nc1ccccc1 [Fenamidone] | ≥ 10 | > 50.1 | > 50.1 | > 50.1 | > 100 |  |  |  |
| CO/C=C(/C(=O)OC)c1ccccc1Oc1cc(Oc2ccccc2C#N)ncn1 [Azoxystrobin] | 10.0 |  |  |  |  | 4.0 | 9.8 | Ratios of EC25 KE4/KE3 proteasomal [8]: 0.9; EC25 KE4 (AO) Neurite toxicity [2, 11]: 4.5 -log[M]; log2FoldChange AARS ([6]; 0.10 µM): -0.16 log2; log2FoldChange AASDHPPT ([6]; 0.10 µM): 0.0857 log2; log2FoldChange AATF ([6]; 0.10 µM): -0.0134 log2; log2FoldChange ABCA1 ([6]; 0.10 µM): -0.16 log2; log2FoldChange ABCA6 ([6]; 0.10 µM): -1.97 log2 |
| CO/N=C(/C(=O)OC)c1ccccc1COc1ccccc1C [Kresoxim-methyl] | ≥ 10 | 50.1 | 39.8 | 31.6 | > 100 |  |  |  |
| CO/C=C(/C(=O)OC)c1ccccc1COc1cccc(C(F)(F)F)n1 [Picoxystrobin] | 63 |  |  |  |  | 31.6 | 4.7 | EC25 KE4 (AO) Neurite toxicity [2, 11]: 4.4 -log[M]; log2FoldChange AARS ([6]; 0.10 µM): -0.76 log2; log2FoldChange AASDHPPT ([6]; 0.10 µM): 1.04 log2; log2FoldChange AATF ([6]; 0.10 µM): -0.34 log2; log2FoldChange ABCA1 ([6]; 0.10 µM): -0.73 log2; log2FoldChange ABCA6 ([6]; 0.10 µM): 1.05 log2 |
| CC(C)Oc1cccc(NC(=O)c2ccccc2C(F)(F)F)c1 [Flutolanil] |  | 79.4 | > 100 | 79.4 | > 100 |  |  |  |
| CC(C)(C)c1ccc(CSc2cnn(C(C)(C)C)c(=O)c2Cl)cc1 [Pyridaben] | 40–60 | 63.1 | > 100 | 79.4 | > 100 | ≥ 800 |  |  |
